Data from patent publication US8202865B2, “Oxadiazole derivatives” (Merck Serono SA, priority 2007, dated 2012).
Structures can show the parent of a compound that is named as a salt.

molecular target: T1, S1P1 (Homo sapiens, UniProt P21453); experiment: Receptor binding assay, [33P]sphingosine 1-phosphate, membranes, WGA SPA beads; settings: membranes from CHO cells expressing S1P1; 25 pM [33P]S1P; 60 min RT
T1 construct: expressed in transfected cells; host or cells: CHO cells (membranes)
Procedure: Receptor binding assay: Membranes were prepared from CHO cells expressing S1P1 or S1P3 for use in ligand and […] binding studies. Cells were suspended in 50 mM TRIS, pH 7.4, 2 mM EDTA, 250 mM Sucrose (buffer A) and 1× Complete protease inhibitor cocktail (Roche), and disrupted at 4° C. by N2 decompression using a cell disruption bomb (Parr Instrument). Following centrifugation at 1000 RPM for 10 min at 4° C., the supernatant was suspended in buffer A and centrifuged again at 19000 RPM for 60 min at 4° C. The pellet was then suspended in 10 mM HEPES, pH 7.4, 1 mM EDTA, 250 mM Sucrose (Buffer B), and 1× Complete EDTA-free protease inhibitor cocktail and homogenized using a potter. Membranes were flash frozen in liquid N2 and stored at −80° C. [33P]sphingosine 1-phosphate (3000 Ci/mmol; American Radiolabeled Chemicals, Inc.) was added to test compounds in DMSO. Membranes and WGA SPA beads (GE Healthcare) were added to give a final volume of 100 μl in 96-well plates with assay concentrations of 25 pM or 10 pM [33P]sphingosine 1-phosphate (respectively for S1P1 or S1P3), 50 mM HEPES, pH 7.5, 5 mM MgCl2, 100 mM NaCl, 0.4% fatty acid-free BSA, 1-5 μg/well of proteins and 100 μg/well of WGA SPA beads. Binding was performed for 60 min at RT on a shaker and bound radioactivity was measured on a PerkinElmer 1450 MicroBeta counter. Specific binding was calculated by subtracting remaining radioactivity in the presence of 1000-fold excess of unlabeled S1P. Binding data were analyzed using the GraphPad Prism program.

T1 sequence (P21453 whole entry, species assumed): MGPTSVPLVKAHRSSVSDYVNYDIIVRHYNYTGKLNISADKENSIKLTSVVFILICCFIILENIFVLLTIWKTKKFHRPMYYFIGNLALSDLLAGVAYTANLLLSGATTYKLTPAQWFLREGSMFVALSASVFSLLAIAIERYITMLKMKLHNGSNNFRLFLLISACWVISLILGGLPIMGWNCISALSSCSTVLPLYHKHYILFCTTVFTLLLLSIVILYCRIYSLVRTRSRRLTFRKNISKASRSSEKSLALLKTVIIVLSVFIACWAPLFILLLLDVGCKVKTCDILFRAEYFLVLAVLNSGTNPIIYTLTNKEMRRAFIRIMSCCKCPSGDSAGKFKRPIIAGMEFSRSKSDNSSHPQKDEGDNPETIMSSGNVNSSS

Ki | Compound
2470 nM | O=C(O)c1ccc(-c2noc(-c3ccc(-c4ccccc4C(F)(F)F)cc3)n2)cc1F [Example 1, 2-fluoro-4-{5-[2′-(trifluoromethyl)biphenyl-4-yl]-1,2,4-oxadiazol-3-yl}benzoic acid]
2600 nM | Cc1cccc(C)c1-c1ccc(-c2nc(-c3ccc(C(=O)O)c(F)c3)no2)cc1 [Example 3, 4-[5-(2′,6′-dimethylbiphenyl-4-yl)-1,2,4-oxadiazol-3-yl]-2-fluorobenzoic acid]
10 nM | COCc1cc(-c2nc(-c3ccc(C(=O)O)c(F)c3)no2)ccc1-c1ccccc1C [Example 35, 2-fluoro-4-{5-[2-(methoxymethyl)-2′-methylbiphenyl-4-yl]-1,2,4-oxadiazol-3-yl}benzoic acid]
530 nM | CC(C)Oc1ncc(-c2nc(-c3ccc(C(=O)O)c(F)c3)no2)cc1Cl [Example 36, 4-[5-(5-chloro-6-isopropoxypyridin-3-yl)-1,2,4-oxadiazol-3-yl]-2-fluorobenzoic acid]
10 nM | CC1CCCCN1c1ccc(-c2nc(-c3ccc(S(N)(=O)=O)cc3)no2)cc1NS(C)(=O)=O (stereo not drawn) [Example 37, 4-(5-{4-(2-methylpiperidin-1-yl)-3-[(methylsulfonyl)amino]phenyl}-1,2,4-oxadiazol-3-yl)benzenesulfonamide]
6 nM | CC1CCCCN1c1ccc(-c2nc(-c3cccc(CN(C)CC(=O)O)c3)no2)cc1NS(C)(=O)=O (stereo not drawn) [Example 57, N-methyl-N-[3-(5-{4-(2-methylpiperidin-1-yl)-3-[(methylsulfonyl)amino]phenyl}-1,2,4-oxadiazol-3-yl)benzyl]glycine, Hydrochloride salt]
0.9 nM | COCc1cc(-c2nc(-c3ccc(C(=O)NCC(=O)OC)c(F)c3)no2)ccc1-c1ccccc1C [Example 122, Methyl N-(2-fluoro-4-{5-[2-(methoxymethyl)-2′-methylbiphenyl-4-yl]-1,2,4-oxadiazol-3-yl}benzoyl)glycinate]

Compound | Ki
CC(C)COc1ncc(-c2nc(-c3ccc(C(=O)O)c(F)c3)no2)cc1Cl [Example 34, 4-[5-(5-chloro-6-isobutoxypyridin-3-yl)-1,2,4-oxadiazol-3-yl]-2-fluorobenzoic acid] | 2930 nM
CCC(C)Oc1ncc(-c2nc(-c3ccc(OCC(=O)O)c(F)c3)no2)cc1Cl (stereo not drawn) [Example 50, {4-[5-(6-sec-butoxy-5-chloropyridin-3-yl)-1,2,4-oxadiazol-3-yl]-2-fluorophenoxy}acetic acid] | 50 nM

molecular target: T1, S1P1; experiment: 35S-GTPγS binding, S1P1 membranes; assay type: biochemical; settings: membranes from CHO cells expressing S1P1; 60 min 30° C.
Outline: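 CHO-cell membranes expressing S1P1 or S1P3 (1-10 μg) incubated with compounds in 20 mM HEPES pH 7.4, 10 mM MgCl2, 140 mM NaCl, saponin, 0.2% BSA, 1.7 μM GDP and [35S]-GTPγS (20 μl of 1.5 nM added), 60 min at 30° C. Bound radioactivity expressed as % of S1P activation.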

EC50 | Compound
30 nM | COCc1cc(-c2nc(-c3ccc(C(=O)O)c(F)c3)no2)ccc1-c1ccccc1C [Example 35, 2-fluoro-4-{5-[2-(methoxymethyl)-2′-methylbiphenyl-4-yl]-1,2,4-oxadiazol-3-yl}benzoic acid]
1.6 nM | CC1CCCCN1c1ccc(-c2nc(-c3ccc(S(N)(=O)=O)cc3)no2)cc1NS(C)(=O)=O (stereo not drawn) [Example 37, 4-(5-{4-(2-methylpiperidin-1-yl)-3-[(methylsulfonyl)amino]phenyl}-1,2,4-oxadiazol-3-yl)benzenesulfonamide]
4 nM | CC1CCCCN1c1ccc(-c2nc(-c3cccc(CN(C)CC(=O)O)c3)no2)cc1NS(C)(=O)=O (stereo not drawn) [Example 57, N-methyl-N-[3-(5-{4-(2-methylpiperidin-1-yl)-3-[(methylsulfonyl)amino]phenyl}-1,2,4-oxadiazol-3-yl)benzyl]glycine, Hydrochloride salt]
2.5 nM | COCc1cc(-c2nc(-c3ccc(C(=O)NCC(=O)OC)c(F)c3)no2)ccc1-c1ccccc1C [Example 122, Methyl N-(2-fluoro-4-{5-[2-(methoxymethyl)-2′-methylbiphenyl-4-yl]-1,2,4-oxadiazol-3-yl}benzoyl)glycinate]
2.5 nM | CCc1ccccc1-c1ccc(-c2nc(-c3ccc(F)c(CN(C)CCC(=O)O)c3)no2)cc1COC [Example 156, N-(5-{5-[2′-ethyl-2-(methoxymethyl)biphenyl-4-yl]-1,2,4-oxadiazol-3-yl}-2-fluorobenzyl)-N-methyl-beta-alanine, Hydrochloride salt]
4 nM | COCc1cc(-c2nc(-c3ccc(F)c(CN(C)CCC(=O)O)c3)no2)ccc1OC(C)C [Example 157, N-(2-fluoro-5-{5-[4-isopropoxy-3-(methoxymethyl)phenyl]-1,2,4-oxadiazol-3-yl}benzyl)-N-methyl-beta-alanine, Hydrochloride salt]
10 nM | COCc1cc(-c2nc(-c3ccc(F)c(CN(C)CC(=O)O)c3)no2)ccc1OC(C)C [Example 158, N-(2-fluoro-5-{5-[4-isopropoxy-3-(methoxymethyl)phenyl]-1,2,4-oxadiazol-3-yl}benzyl)-N-methylglycine, Hydrochloride salt]
2.9 nM | COCc1cc(-c2nc(-c3cccc(COCC(=O)OC)c3)no2)ccc1-c1ccccc1C [Example 159, Methyl [(3-{5-[2-(methoxymethyl)-2′-methylbiphenyl-4-yl]-1,2,4-oxadiazol-3-yl}benzyl)oxy]acetate]
0.6 nM | COCc1cc(-c2nc(-c3cccc(COCC(=O)O)c3)no2)ccc1-c1ccccc1C [Example 160, [(3-{5-[2-(methoxymethyl)-2′-methylbiphenyl-4-yl]-1,2,4-oxadiazol-3-yl}benzyl)oxy]acetic acid]
2.1 nM | COCc1cc(-c2nc(-c3cccc(CCOCC(=O)O)c3)no2)ccc1-c1ccccc1C [Example 161, [2-(3-{5-[2-(methoxymethyl)-2′-methylbiphenyl-4-yl]-1,2,4-oxadiazol-3-yl}phenyl)ethoxy]acetic acid]
5 nM | CCc1ccccc1-c1ccc(-c2nc(-c3ccc(OCCCC(=O)O)c(F)c3)no2)cc1COC [Example 162, 4-(4-{5-[2′-ethyl-2-(methoxymethyl)biphenyl-4-yl]-1,2,4-oxadiazol-3-yl}-2-fluorophenoxy)butanoic acid]
5.5 nM | CCOC(=O)CCCOc1ccc(-c2noc(-c3ccc(N4CCCCC4C)c(COC)c3)n2)cc1F (stereo not drawn) [Example 163, ethyl 4-(2-fluoro-4-{5-[3-(methoxymethyl)-4-(2-methylpiperidin-1-yl)phenyl]-1,2,4-oxadiazol-3-yl}phenoxy)butanoate]
1.5 nM | COCc1cc(-c2nc(-c3cccc(OCCCC(=O)O)c3)no2)ccc1N1CCCCC1C (stereo not drawn) [Example 164, 4-(3-{5-[3-(methoxymethyl)-4-(2-methylpiperidin-1-yl)phenyl]-1,2,4-oxadiazol-3-yl}phenoxy)butanoic acid]
1.6 nM | COCc1cc(-c2nc(-c3ccc(OCCCC(=O)O)c(F)c3)no2)ccc1N1CCCCC1C (stereo not drawn) [Example 165, 4-(2-fluoro-4-{5-[3-(methoxymethyl)-4-(2-methylpiperidin-1-yl)phenyl]-1,2,4-oxadiazol-3-yl}phenoxy)butanoic acid]
5.2 nM | COCc1cc(-c2nc(-c3ccc(OCC(=O)O)c(F)c3)no2)ccc1N1CCCCC1C (stereo not drawn) [Example 169, (2-fluoro-4-{5-[3-(methoxymethyl)-4-(2-methylpiperidin-1-yl)phenyl]-1,2,4-oxadiazol-3-yl}phenoxy)acetic acid, hydrochloride salt]
33 nM | COCCNC(=O)c1ccc(-c2noc(-c3ccc(-c4ccccc4C)c(COC)c3)n2)cc1F [Example 172, 2-fluoro-N-(2-methoxyethyl)-4-{5-[2-(methoxymethyl)-2′-methylbiphenyl-4-yl]-1,2,4-oxadiazol-3-yl}benzamide]
128 nM | COCc1cc(-c2nc(-c3ccc(C(=O)N4CC(F)(F)C4)c(F)c3)no2)ccc1-c1ccccc1C [Example 175, 3-{4-[(3,3-difluoroazetidin-1-yl)carbonyl]-3-fluorophenyl}-5-[2-(methoxymethyl)-2′-methylbiphenyl-4-yl]-1,2,4-oxadiazole]
197 nM | CCc1cnc(CCNC(=O)c2ccc(-c3noc(-c4ccc(-c5ccccc5C)c(COC)c4)n3)cc2F)o1 [Example 176, N-[2-(5-ethyl-1,3-oxazol-2-yl)ethyl]-2-fluoro-4-{5-[2-(methoxymethyl)-2′-methylbiphenyl-4-yl]-1,2,4-oxadiazol-3-yl}benzamide]
26 nM | CCc1nnn(CCNC(=O)c2ccc(-c3noc(-c4ccc(-c5ccccc5C)c(COC)c4)n3)cc2F)n1 [Example 180, N-[2-(5-ethyl-2H-tetrazol-2-yl)ethyl]-2-fluoro-4-{5-[2-(methoxymethyl)-2′-methylbiphenyl-4-yl]-1,2,4-oxadiazol-3-yl}benzamide]
16 nM | COCCNC(=O)c1cccc(-c2noc(-c3ccc(-c4ccccc4C)c(COC)c3)n2)c1 [Example 181, N-(2-methoxyethyl)-3-{5-[2-(methoxymethyl)-2′-methylbiphenyl-4-yl]-1,2,4-oxadiazol-3-yl}benzamide]
11 nM | COCc1cc(-c2nc(-c3cccc(C(N)=O)c3)no2)ccc1-c1ccccc1C [Example 182, 3-{5-[2-(methoxymethyl)-2′-methylbiphenyl-4-yl]-1,2,4-oxadiazol-3-yl}benzamide]
2 nM | COCc1cc(-c2nc(-c3cccc(CNCCO)c3)no2)ccc1-c1ccccc1C [Example 187, 2-[(3-{5-[2-(methoxymethyl)-2′-methylbiphenyl-4-yl]-1,2,4-oxadiazol-3-yl}benzyl)amino]ethanol, Hydrochloride salt]
4 nM | COCCNCc1cccc(-c2noc(-c3ccc(-c4ccccc4C)c(COC)c3)n2)c1 [Example 188, 2-methoxy-N-(3-{5-[2-(methoxymethyl)-2′-methylbiphenyl-4-yl]-1,2,4-oxadiazol-3-yl}benzyl)ethanamine, Hydrochloride salt]
6.1 nM | COCCOCc1cccc(-c2noc(-c3ccc(-c4ccccc4C)c(COC)c3)n2)c1 [Example 192]
1.8 nM | COCc1cc(-c2nc(-c3cccc(COCCO)c3)no2)ccc1-c1ccccc1C [Example 193, 2-[(3-{5-[2-(methoxymethyl)-2′-methylbiphenyl-4-yl]-1,2,4-oxadiazol-3-yl}benzyl)oxy]ethanol]

Compound | EC50
CC(C)COc1ncc(-c2nc(-c3ccc(C(=O)O)c(F)c3)no2)cc1Cl [Example 34, 4-[5-(5-chloro-6-isobutoxypyridin-3-yl)-1,2,4-oxadiazol-3-yl]-2-fluorobenzoic acid] | 4990 nM
CCC(C)Oc1ncc(-c2nc(-c3ccc(OCC(=O)O)c(F)c3)no2)cc1Cl (stereo not drawn) [Example 50, {4-[5-(6-sec-butoxy-5-chloropyridin-3-yl)-1,2,4-oxadiazol-3-yl]-2-fluorophenoxy}acetic acid] | 261 nM
